# Results: publication PMC7865522, “Analyzing Kinase Similarity in Small Molecule and Protein Structural Space to Explore the Limits of Multi-Target Screening” (Molecules, 2021)
# Experiments:
# Test in all cases: DiscoverX KINOMEscan competition binding assay
# EGFR = target: T1, EGFR (Homo sapiens, UniProt P00533); settings: compound 10 µM; lower values = higher affinity; below 35% = significant binding
# T1 construct: purchased DiscoverX (KINOMEscan service); host or cells: E. coli BL21-derived host (T7 phage) or HEK-293
# In short: (§1)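 Read-out is qPCR of kinase eluted from an immobilized-ligand affinity resin after competition with test compound (10 µM), expressed as % of control; lower values mean stronger binding. Kinase came as phage-tagged or HEK-293-derived DNA-tagged protein.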
# BRAF = target: T2, BRAF (Homo sapiens, UniProt P15056); settings: 10 µM; Table 3; read-out: % ctrl. activity at 10 µM, BRAF (DiscoverX), printed as symbol
# T2 construct: purchased DiscoverX (KINOMEscan service); host or cells: E. coli BL21-derived host (T7 phage) or HEK-293
# In short: as §1
# ErbB2 = target: T3, ErbB2 (Homo sapiens, UniProt P04626); settings: compound 10 µM; lower values = higher affinity; below 35% = significant binding
# T3 construct: purchased DiscoverX (KINOMEscan service); host or cells: E. coli BL21-derived host (T7 phage) or HEK-293
# In short: as §1
# VEGFR2 = target: T4, VEGFR2 (Homo sapiens, UniProt P35968); settings: compound 10 µM; lower values = higher affinity; below 35% = significant binding
# T4 construct: purchased DiscoverX (KINOMEscan service); host or cells: E. coli BL21-derived host (T7 phage) or HEK-293
# In short: as §1
# PI3K = PI3K (Homo sapiens, UniProt P42336); parameters: purchased DiscoverX (KINOMEscan service); host or cells: E. coli BL21-derived host (T7 phage) or HEK-293; settings: compound 10 µM; lower values = higher affinity; below 35% = significant binding
# In short: as §1
# T2 sequence (P15056 whole entry): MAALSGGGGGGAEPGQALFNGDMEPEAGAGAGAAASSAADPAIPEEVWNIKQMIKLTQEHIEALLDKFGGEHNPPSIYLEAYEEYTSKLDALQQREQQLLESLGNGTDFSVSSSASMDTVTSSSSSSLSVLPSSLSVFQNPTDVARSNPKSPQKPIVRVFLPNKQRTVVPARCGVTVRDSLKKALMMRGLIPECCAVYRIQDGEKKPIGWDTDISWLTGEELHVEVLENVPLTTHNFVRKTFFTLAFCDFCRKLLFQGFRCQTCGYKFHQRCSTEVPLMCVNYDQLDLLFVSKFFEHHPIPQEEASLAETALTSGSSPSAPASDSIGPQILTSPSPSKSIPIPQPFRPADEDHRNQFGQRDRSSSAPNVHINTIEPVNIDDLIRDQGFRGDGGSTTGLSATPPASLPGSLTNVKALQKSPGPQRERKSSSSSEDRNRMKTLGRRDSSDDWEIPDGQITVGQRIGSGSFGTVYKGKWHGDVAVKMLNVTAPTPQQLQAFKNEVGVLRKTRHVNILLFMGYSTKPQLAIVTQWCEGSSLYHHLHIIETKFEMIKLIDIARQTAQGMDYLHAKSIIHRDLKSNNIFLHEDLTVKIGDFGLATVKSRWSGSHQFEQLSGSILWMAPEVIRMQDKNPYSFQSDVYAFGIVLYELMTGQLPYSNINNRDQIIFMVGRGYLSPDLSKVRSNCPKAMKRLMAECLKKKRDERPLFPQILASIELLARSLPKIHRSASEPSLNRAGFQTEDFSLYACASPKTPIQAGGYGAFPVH
# Chain of PI3K (P42336 whole entry): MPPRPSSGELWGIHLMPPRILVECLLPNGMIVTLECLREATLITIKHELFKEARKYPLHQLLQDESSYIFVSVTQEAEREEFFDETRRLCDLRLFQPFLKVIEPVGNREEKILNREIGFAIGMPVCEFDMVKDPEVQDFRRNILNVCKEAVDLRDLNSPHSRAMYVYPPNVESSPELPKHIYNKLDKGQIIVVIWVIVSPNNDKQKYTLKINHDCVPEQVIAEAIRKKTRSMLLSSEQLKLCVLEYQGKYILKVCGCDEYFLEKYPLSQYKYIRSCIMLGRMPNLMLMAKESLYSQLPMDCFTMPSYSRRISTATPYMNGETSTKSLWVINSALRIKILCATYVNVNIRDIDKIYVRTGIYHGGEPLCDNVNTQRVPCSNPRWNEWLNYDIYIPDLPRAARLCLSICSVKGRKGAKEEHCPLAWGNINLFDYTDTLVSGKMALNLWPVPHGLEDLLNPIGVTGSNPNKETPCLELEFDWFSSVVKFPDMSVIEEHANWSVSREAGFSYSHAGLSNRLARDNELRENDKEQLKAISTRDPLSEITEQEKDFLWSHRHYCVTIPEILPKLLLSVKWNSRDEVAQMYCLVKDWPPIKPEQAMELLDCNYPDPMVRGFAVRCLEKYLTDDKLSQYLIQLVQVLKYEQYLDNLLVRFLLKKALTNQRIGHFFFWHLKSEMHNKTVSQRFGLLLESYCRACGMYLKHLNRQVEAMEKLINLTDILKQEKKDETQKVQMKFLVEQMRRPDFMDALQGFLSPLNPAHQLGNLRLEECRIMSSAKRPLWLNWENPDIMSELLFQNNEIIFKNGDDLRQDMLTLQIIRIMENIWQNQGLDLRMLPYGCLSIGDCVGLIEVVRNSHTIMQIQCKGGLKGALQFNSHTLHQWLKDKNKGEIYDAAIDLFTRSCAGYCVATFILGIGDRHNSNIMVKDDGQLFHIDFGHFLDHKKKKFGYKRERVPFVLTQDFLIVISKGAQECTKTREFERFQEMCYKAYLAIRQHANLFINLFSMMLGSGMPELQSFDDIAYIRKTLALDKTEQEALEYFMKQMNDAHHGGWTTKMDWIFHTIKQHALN
# T1 sequence (P00533 25-1210): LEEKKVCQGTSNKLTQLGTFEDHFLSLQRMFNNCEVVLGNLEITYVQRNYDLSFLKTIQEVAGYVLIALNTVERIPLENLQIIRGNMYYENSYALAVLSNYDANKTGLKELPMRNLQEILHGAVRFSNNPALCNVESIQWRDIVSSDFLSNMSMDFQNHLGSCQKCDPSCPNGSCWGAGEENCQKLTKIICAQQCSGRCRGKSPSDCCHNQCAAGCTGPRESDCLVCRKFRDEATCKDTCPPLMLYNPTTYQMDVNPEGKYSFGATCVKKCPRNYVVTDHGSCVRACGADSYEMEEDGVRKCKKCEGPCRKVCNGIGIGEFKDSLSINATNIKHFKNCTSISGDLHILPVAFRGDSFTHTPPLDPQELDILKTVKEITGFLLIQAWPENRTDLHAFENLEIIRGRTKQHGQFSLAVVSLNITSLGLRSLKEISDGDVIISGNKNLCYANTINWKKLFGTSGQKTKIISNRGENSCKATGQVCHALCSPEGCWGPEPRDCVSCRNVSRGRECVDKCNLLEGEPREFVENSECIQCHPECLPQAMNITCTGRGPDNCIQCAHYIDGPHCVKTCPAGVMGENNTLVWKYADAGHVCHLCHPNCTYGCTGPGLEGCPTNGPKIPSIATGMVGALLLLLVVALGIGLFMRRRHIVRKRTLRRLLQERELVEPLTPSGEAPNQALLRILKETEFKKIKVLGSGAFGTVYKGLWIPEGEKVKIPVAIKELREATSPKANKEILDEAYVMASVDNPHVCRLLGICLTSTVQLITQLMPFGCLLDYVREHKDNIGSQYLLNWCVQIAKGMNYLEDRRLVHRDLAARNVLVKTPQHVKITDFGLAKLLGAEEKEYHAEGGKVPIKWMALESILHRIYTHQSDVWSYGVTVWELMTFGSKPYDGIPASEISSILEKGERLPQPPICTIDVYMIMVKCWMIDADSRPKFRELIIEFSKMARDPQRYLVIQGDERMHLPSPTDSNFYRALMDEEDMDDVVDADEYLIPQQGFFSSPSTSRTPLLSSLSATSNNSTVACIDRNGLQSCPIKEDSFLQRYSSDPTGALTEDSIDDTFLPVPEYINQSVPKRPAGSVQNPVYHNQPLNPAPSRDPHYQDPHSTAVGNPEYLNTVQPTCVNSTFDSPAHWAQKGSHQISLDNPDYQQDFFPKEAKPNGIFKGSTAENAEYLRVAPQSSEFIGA
# T3 sequence (P04626 23-1255): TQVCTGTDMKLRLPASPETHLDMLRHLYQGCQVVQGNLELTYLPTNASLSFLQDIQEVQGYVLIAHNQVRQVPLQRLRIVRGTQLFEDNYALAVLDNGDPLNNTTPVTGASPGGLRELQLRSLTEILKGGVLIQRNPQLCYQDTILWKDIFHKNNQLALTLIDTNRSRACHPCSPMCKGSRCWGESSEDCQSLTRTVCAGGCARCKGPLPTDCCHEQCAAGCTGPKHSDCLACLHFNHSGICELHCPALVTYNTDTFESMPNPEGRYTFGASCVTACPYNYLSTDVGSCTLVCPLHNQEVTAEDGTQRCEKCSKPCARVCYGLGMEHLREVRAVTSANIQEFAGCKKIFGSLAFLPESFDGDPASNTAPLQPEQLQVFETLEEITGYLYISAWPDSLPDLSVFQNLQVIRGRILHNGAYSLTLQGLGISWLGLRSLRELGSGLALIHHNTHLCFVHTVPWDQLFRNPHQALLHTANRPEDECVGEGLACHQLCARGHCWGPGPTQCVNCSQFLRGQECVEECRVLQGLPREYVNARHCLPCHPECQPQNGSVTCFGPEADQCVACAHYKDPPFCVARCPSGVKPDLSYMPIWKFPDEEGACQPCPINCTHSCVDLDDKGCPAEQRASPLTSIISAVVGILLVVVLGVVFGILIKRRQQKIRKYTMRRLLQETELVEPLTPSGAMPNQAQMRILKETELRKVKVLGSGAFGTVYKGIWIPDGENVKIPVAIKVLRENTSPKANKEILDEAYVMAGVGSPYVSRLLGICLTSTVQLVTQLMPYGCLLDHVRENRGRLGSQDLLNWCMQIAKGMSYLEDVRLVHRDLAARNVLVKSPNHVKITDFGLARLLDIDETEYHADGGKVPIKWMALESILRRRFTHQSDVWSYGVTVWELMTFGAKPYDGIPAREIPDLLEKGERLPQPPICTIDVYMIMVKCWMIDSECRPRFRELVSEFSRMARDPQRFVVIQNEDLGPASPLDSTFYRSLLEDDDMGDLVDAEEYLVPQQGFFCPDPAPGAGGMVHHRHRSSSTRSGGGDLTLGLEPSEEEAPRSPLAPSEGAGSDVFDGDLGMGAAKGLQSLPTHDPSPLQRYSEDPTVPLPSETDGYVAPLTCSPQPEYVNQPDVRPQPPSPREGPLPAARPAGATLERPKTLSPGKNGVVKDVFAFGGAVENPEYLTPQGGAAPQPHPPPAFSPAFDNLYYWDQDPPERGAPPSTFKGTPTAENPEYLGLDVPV
smiles,measurement,setting,value
COC(=O)Cc1ccc(Oc2ncnc3sc4c(c23)CC[C@@H](C)C4)cc1 (racemic) [DS39984],"% control, EGFR (DiscoverX)",EGFR,17 % control
same,remaining binding at 10 µM,BRAF,≥ 99%
same,"% control, ErbB2 (DiscoverX)",ErbB2,21 % control
same,"% control, VEGFR2 (DiscoverX)",VEGFR2,99 % control
same,"% control, PI3K (DiscoverX)",PI3K,100 % control
